Paper PMC9344678, “BTApep-TAT peptide inhibits ADP-ribosylation of BORIS to induce DNA damage in cancer” (Molecular Cancer, 2022)
Where no end group is shown, it is not given here.

Assays:
BORIS-N198-228 peptide = experiment: PARP1-catalyzed in vitro PARylation assay; assay type: biochemical; details: recombinant PARP1, ssDNA, 37 °C 30 min, dot blot anti-ADPr
Method: Peptides (1–4 μg) incubated with different samples were added to 50 μL PARP1 reaction buffer (50 mM Tris–HCl at pH 7.4, 2 mM MgCl2, 200 μM NAD^+), which contained 0.2 μg of recombinant PARP1 (Trevigen, 4668–100-01) and 2.5 μg of ssDNA (Sigma, D8899), and reaction was carried out at 37 °C for 30 min. Low molecular weight peptide and PARP1 protein in the reactions were separated by a 30 kDa cutoff centrifugal filter (Millipore, UFC803096). Then, SDS loading buffer was added to separate peptides or proteins and analyzed by dot blotting using an anti- ADP ribosylation (ADPr) antibody.
To further confirm ADP ribosylation at residues 198–228, the synthesized BORIS-N198-228 peptide was subjected to a PARP1-catalyzed in vitro PARylation assay. Single-strand DNA (ssDNA) was added to activate PARP1. The BORIS-N198-228 peptide was separated by centrifugal filtration, and its PARylation levels were examined by dot blotting using an anti-ADPr antibody. […] To determine the modification between residues 198–228, the BORIS-N198-228 peptide was pre-incubated with BTApep-TAT or His-TAT before processing for PARP1-catelyzed in vitro PARylation. […] Taken together, we provided evidence that ADP ribosylation of BORIS was responsible for the association with Ku70 and DNA repair. […]

BORIS = experiment: ADP ribosylation of BORIS under olaparib; assay type: cell-based; details: PARP inhibitor incubation
Method: HeLa or H1299 cells were lysed in immunoprecipitation (IP) buffer (50 mM Tris–HCl pH 7.4, 150 mM NaCl, 1% NP-40, 1 mM EDTA, 5% glycerol) containing protease inhibitor cocktails. The cell lysates were incubated with mouse anti-Myc (CST, 2276) or rabbit anti-poly/mono-ADP Ribose (E6F6A) monoclonal antibody (CST, 83732) on a rotary shaker at 4 °C overnight. Mouse or rabbit IgG (Santa Cruz, sc-2025 or sc2027) was used as a negative control for detecting the pull-down specificity. Protein G beads (Santa Cruz, sc-2001) or protein A beads (Santa Cruz, sc-2002) were added and incubated at room temperature for 2 h. The agarose beads were collected by centrifugation, washed five times with IP buffer according to the manufacturer’s instructions, and eluted in SDS sample buffer for the subsequent Western blotting assay.

PARP2 = details: ref [33], [49]; cited from earlier work
BORIS-N1-258 = biological target: T1, BORIS-N1-258 (Homo sapiens, UniProt Q8NI51); experiment: BLI, BORIS-N1-258 immobilized on SSA sensor, free peptide in solution; assay type: binding; details: free peptide in PBS with 0.02% Tween 20
T1 construct: The N terminal section of BORIS corresponding to AA 1–258 (BORIS-N1-258); 6xHis (C); made in house
T1 sequence (Q8NI51 1-258): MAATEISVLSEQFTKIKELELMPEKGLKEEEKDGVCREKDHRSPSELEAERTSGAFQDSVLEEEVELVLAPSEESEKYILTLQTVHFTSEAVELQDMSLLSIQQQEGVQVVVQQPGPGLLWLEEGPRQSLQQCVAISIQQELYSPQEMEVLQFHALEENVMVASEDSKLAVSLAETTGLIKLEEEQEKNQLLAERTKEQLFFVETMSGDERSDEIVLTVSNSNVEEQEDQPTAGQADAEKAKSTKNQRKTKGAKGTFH
Method: Twelve tandemly connected His was synthesized and conjugated with biotin or FITC as a negative control peptide by China Peptides Co., Ltd. The peptides were stored in powder at -80 °C. The peptides were dissolved in phosphate-buffered saline and filtered through a 0.22 µm filter to remove bacteria before use. The interaction between peptides and BORIS-N1-258 was measured by Bio-layer interferometry (BLI) in the ForteBio OctetRed system. The measurement was carried out in 5 steps: initial baseline duration, loading duration, baseline duration, association duration, and dissociation duration. In loading duration, 10 nM biotinylated peptides or 1 µM BORIS-N1-258 protein were immobilized on streptavidin-coated biosensors (ForteBio). The immobilization typically reached a response level of 4 nm. Association and dissociation curves were obtained through the addition of a dilution series of BORIS-N1-258 or peptides in PBS with 0.02% Tween 20 for the indicated period of time using Octet acquisition software. The binding data were fitted using Octet analysis software.
The BORIS-N1-258 protein was conjugated with biotin and loaded onto an SSA sensor. The synthesized peptides were dissolved in PBS with 0.02% Tween 20.

H1299 cells = experiment: Proliferation of H1299 cells (MTT, cell counting); assay type: cell-based; details: 25 µM (Fig. 2D)
Method: (§1) H1299 cells (RRID: CVCL_0060) were cultured in RPMI 1640 medium supplemented with 10% FBS. HEK293 (RRID:CVCL_0045) and HeLa (RRID:CVCL_0030) cells were cultured in Dulbecco's modified Eagle’s medium (DMEM) supplemented with 10% FBS and placed in 37 ℃ and 5% CO2 incubators. Cells were seeded in 6-well plates at 1 × 10^5 cells/well or in 96-well plates at 2000 cells/well for experiments. Cell viability was measured by MTT assay.
(§2) Cells were plated and treated with BORIS-targeted peptide (BTApep-TAT) or negative control peptide (His-TAT) at concentrations of 10 µM, 25 µM, 50 µM and 100 µM for 3 days. Cell viability was measured by MTT assay. Cell apoptosis was measured by TUNEL assay (cat. # 40306ES20, Yeasen Biotech Co., Ltd) and Caspase-Glo 3/7 assay (G8090, Promega Corporation, an affiliate of Promega (Beijing) Biotech Co., Ltd.).

HEK293 cells = experiment: Proliferation of HEK293 cells; assay type: cell-based; details: 25 µM (Fig. 2D); normal cells not expressing BORIS
Method: as §1, §2

[1] = biological target: T2, BORIS N-terminal region AA 1-258 (BORIS-N_(1-258)), His-tagged, from bacteria (human, UniProt Q8NI51 1-258, biotin (conjugated for loading onto the SSA sensor; position not stated; not said of the protein used free in solution or coated on plates)); experiment: BLI; ForteBio OctetRed; biotin-conjugated BORIS-N_(1-258) loaded onto an SSA sensor (1 µM in loading), free peptide in solution in PBS with 0.02% Tween 20; details: both partners purified
T2 construct: Cloned in the backbone of plasmid pFN6K; also called BORIS antigen; not shown: His6, C-terminal, kept
T2 sequence (looked up): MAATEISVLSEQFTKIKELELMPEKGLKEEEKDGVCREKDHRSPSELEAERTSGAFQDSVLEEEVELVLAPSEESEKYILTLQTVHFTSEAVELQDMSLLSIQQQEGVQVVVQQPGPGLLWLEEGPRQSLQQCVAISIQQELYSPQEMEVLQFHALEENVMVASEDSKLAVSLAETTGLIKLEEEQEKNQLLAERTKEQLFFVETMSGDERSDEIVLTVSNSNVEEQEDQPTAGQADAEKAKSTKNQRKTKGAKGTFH

[2] = biological target: T2, BORIS N-terminal region AA 1-258 …; experiment: BLI; ForteBio OctetRed; biotin-labeled peptide 9 loaded onto an SA sensor (10 nM in loading), dilution series of BORIS-N_(1-258) in PBS with 0.02% Tween 20; details: both partners purified
[3] = biological target: T3, BORIS-N_(1-258) expressed and purified from HEK293 cells (human, UniProt Q8NI51 1-258); experiment: as above; details: both partners purified
T3 construct: source: HEK293 cells, expressed and purified
T3 sequence (looked up): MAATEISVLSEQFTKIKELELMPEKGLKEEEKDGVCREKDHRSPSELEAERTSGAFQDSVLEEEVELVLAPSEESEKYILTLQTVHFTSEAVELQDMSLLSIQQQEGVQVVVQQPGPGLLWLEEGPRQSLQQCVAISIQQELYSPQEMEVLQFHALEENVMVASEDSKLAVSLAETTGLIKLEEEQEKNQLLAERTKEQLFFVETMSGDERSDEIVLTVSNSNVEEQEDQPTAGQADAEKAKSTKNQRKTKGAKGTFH

[4] = biological target: T2, BORIS N-terminal region AA 1-258 …; experiment: ELISA; plates coated overnight at 4 °C with purified His-tagged BORIS-N_(1-258) (carbonate buffer, pH 9.6); purified phage clones in serial dilutions, 2 h at RT; detection by HRP-conjugated anti-M13 antibody; details: both partners purified

BORIS-N198-228 peptide: synthesized peptide of BORIS residues 198–228 (EQLFFVETMSGDERSDEIVLTVSNSNVEEQE; UniProt Q8NI51 198-228, looked up, fragment)
PARylation of the peptide itself (BORIS-N198-228 peptide): accumulated in proportion to its abundance

O=C(c1cc(Cc2n[nH]c(=O)c3ccccc23)ccc1F)N1CCN(C(=O)C2CC2)CC1 [Olaparib, olaparib]
effect on ADP ribosylation of BORIS (BORIS): did not attenuate ADP ribosylation of BORIS | inhibition of PARP2 (PARP2): inhibits

RFDHWVWQSQPW [Scrambled peptide 9]
affinity in BLI (BORIS-N1-258; result in words, BORIS-N1-258 on SSA sensor): did not have any measurable affinity

DWSSWVYRDPQT [Peptide 2]
Kd (BORIS-N1-258; bacterial BORIS-N1-258 on SSA sensor, read-out: binding affinity (Kd)): 315 µM

BTApep: BORIS-targeted peptide lacking the TAT penetrating peptide (VHWDFRQWWQPS)
suppression of proliferation of H1299 cells (H1299 cells): did not inhibit cell proliferation | suppression of proliferation of HEK293 cells (HEK293 cells): did not inhibit cell proliferation

B1: Peptide 2 (peptide)
peptide: DWSSWVYRDPQT
notes: 12-mer selected from the Ph.D.-12 phage display peptide library; source: synthetic peptide (China Peptides Co., Ltd.)
Kd [1]: 314 µM

B2: Peptide 9 (synthesized, free in solution) (peptide)
peptide: VHWDFRQWWQPS
notes: 12-mer selected from the Ph.D.-12 phage display peptide library; The methods say that the peptides were synthesized and conjugated with biotin or FITC; also called peptide from phage clone 9; BTApep; source: synthetic peptide (China Peptides Co., Ltd.)
Kd [1]: 86.4 µM

B3: Peptide 9 labeled with biotin (peptide)
peptide: VHWDFRQWWQPS
modifications: also: biotin (position not given here)
notes: 12-mer selected from the Ph.D.-12 phage display peptide library; also called BTApep-biotin; biotinylated peptide 9; source: synthetic peptide (China Peptides Co., Ltd.)
Kd [2]: 0.0053 µM | Kd [3]: 0.00637 µM

B4: Phage clone 9 (peptide 9 displayed on phage) (peptide)
chain: VHWDFRQWWQPSGGGS
notes: 4 amino acid spacer that links the 12-mer to the N-terminus of a phage coat protein; Whole phage particle; source: purified phage clone from the Ph.D.-12 Phage Display Peptide Library (New England Biolabs); not shown: phage coat protein (Ph.D.-12 library), C-terminal, kept
binding result [4]: binds
